From PMC11303713, “Allosteric inhibition of CFTR gating by CFTRinh-172 binding in the pore” (Nature Communications, 2024)
Entries after “also recorded” stand apart in the source; their conditions may differ.

Columns and labels:
[1] = test system: E1371Q- and W1145Y/E1371Q-CFTR; assay: Intracellular SCN- blockade, I-V voltage ramps on excised patch; assay type: cell-based; conditions: 2 mM or 10 mM cytoplasmic SCN-
Excerpt: Also, Sonawane and Verkman
(2008), which carried out a structure-activity relationship study, could have been considered to understand whether the moieties of CFTRinh-172 that were found important for inhibitory activity correspond to interactions with specific parts of CFTR protein.
We thank the reviewer for pointing this out. Now, these two papers are both cited, and their contents are incorporated into the 2nd and 10th paragraph of the Discussion.
4) As a control, a CFTR inhibitor having a completely different structure could have been used to check that potency was not affected by mutagenesis.
Most CFTR inhibitors block CFTR pore from the cytoplasmic side in a voltage-dependent manner, such as glibenclamide (Sheppard and Robinson, 1997), NPPB (Walsh et al., 1999), and DNDS (Linsdell and Hanrahan, 1996). Since these CFTR inhibitors likely block the open channel by traveling down the internal vestibule to the narrow region of the pore, the mutations introduced to the Inh-172’s binding site, which is just below the narrow region, would inevitably affect the actions of these CFTR blockers. […]
Comparison of intracellular SCN- blockade on E1371Q- and W1145Y/E1371Q-CFTR. […] Fraction of block was calculated according to the equation “Fraction of block = 1 – (ISCN)/I0” where ISCN and I0 represent the blocked and unblocked current at a given voltage on the same patch. […]

[2] = test system: "lock-opened" CFTR with dimerized NBDs; design: method as in Zhou et al., 2002; conditions: ref Zhou et al., 2002; cited from earlier work

SMILES | potency of SCN- (fraction of block), E1371Q- vs W1145Y/E1371Q-CFTR [1] | off-rate [2]
N#CS [SCN-, thiocyanate] | barely affected; also recorded: does not differ | 
COc1ccc(Cl)cc1C(=O)NCCc1ccc(S(=O)(=O)NC(=O)NC2CCCCC2)cc1 [glibenclamide] |  | ~ 10 s-1
